Results on 23 compounds are retold here after patent US10112941B2, “Tricyclic compounds as anticancer agents” (BRISTOL-MYERS SQUIBB COMPANY, priority 2013, dated 2018).

For one assay, the target named is BRD4 (Homo sapiens, UniProt O60885). The experiment in a line: Time Resolved Fluorescence Resonance Energy Transfer (TR-FRET) binding assay, BRD4. To be noted: one of the FRET assays described; read-out: FRET BRD4 IC50. For orientation: In TR-FRET formats the signal depends on donor and acceptor labels being close together.
The test system of assay [1] is JJN3R multiple myeloma cell line. The experiment in a line: Human tumor xenograft model in mice, JJN3R. It is filed as in vivo. To be noted: QD × 7. From the text: All rodents were obtained from Jackson Laboratory. (Bar Harbor, Me.), and maintained in an ammonia-free environment in a defined and pathogen-free colony. All mice were quarantined approximately 1 week prior to their use for tumor propagation and drug efficacy testing. Mice were fed food and water ad libitum. The animal care program of Bristol-Myers Squibb Pharmaceutical Research Institute is fully accredited by the American Association for Accreditation of Laboratory Animal Care (AAALAC). All experiments were performed in accordance with Bristol-Myers Squibb (BMS) animal test methods and guidelines.
Tumor xenografts were grown and maintained subcutaneously (SC) in NSG (NOD scid IL2 receptor gamma chain knockout) mice (Jackson Lab). Tumors were propagated as subcutaneous transplants using tumor fragments obtained from donor mice.
The required numbers of animals needed to detect a meaningful response were pooled at the start of the experiment and each was given bilateral subcutaneous implants of two tumor fragments (˜20 mg) with a 13-gauge trocar. Tumors were allowed to grow to the pre-determined size window (tumors outside the range were excluded) and animals were evenly distributed to various treatment and control groups. There were typically 6-8 mice per treatment and control groups, consisting of 10-12 tumors. Treatment of each animal was based on individual body weight. Treated animals were checked daily for treatment related toxicity/mortality. Each group of animals was weighed before the initiation of treatment (Wt1) and then again following the last treatment dose (Wt2). The difference in body weight (Wt2−Wt1) provides a measure of treatment-related toxicity.
Tumor response was determined by measurement of tumors with a caliper twice a week, until the tumors reached a predetermined “target” size of 0.5 gm or 1 gm depending on the tumor type. Tumor weights (mg) were estimated from the formula: Tumor weight=(length×width^2)÷2
Tumor response criteria are expressed in terms of tumor growth inhibition (% TGI). Tumor growth delay is defined as the difference in time (days) required for the treated tumors (T) to reach a predetermined target size compared to those of the control group (C). For this purpose, the tumor weight of a group is expressed as medium tumor weight (MTW).
[formula] where, • Ct=Median control tumor size at end of treatment • C0=Median control tumor size at treatment initiation • Tt=Median tumor size of treated group at end of treatment • T0=Median tumor size of treated group at treatment initiation
Tumor response was also expressed in terms of tumor growth delay and expressed as log cell kill (LCK value), defined as the difference in time (days) required for the treated tumors (T) to reach a predetermined target size compared to those of the control group (C).
Whenever possible, antitumor activity was determined at a range of dose levels up to the maximum tolerated dose (MTD) which is defined as the dose level immediately […] which excessive toxicity (i.e. more than one death) occurred. When death occurred, the day of death was recorded. Treated mice dying prior to having their tumors reach target size were considered to have died from drug toxicity. No control mice died bearing tumors less than target size. Treatment groups with more than one death caused by drug toxicity were considered to have had excessively toxic treatments and their data were not included in the evaluation of a compound's antitumor efficacy.
For administration of BET inhibitors to rodents, compounds were dissolved in […]/10% TPGS/10% Ethanol. BET inhibitors were typically administered orally on a schedule of QD×7 or QD×10 (5 day-on-2 day-off), although other schedules had also been evaluated and shown to be efficacious
A general note: Xenograft models place foreign cells or tissue in a host animal.

Molecules are shown by their SMILES.

The term IC50 denotes the midpoint of a concentration-inhibition curve. As for `[2H]C([2H])([2H])c1nnn(C)c1-c1cnc2c3cc(F)c(C(C)(C)O)cc3n([C@H](c3ccccc3F)C3CCOCC3)c2c1` [Example 276, 2-{8-Fluoro-5-[(S)-(2-fluorophenyl)(oxan-4-yl)methyl]-3-[4-(^2H3)methyl-1-methyl-1H-1,2,3-triazol-5-yl]-5H-pyrido[3,2-b]indol-7-yl}propan-2-ol], on BRD4, the IC50 was below 5 nM. Besides, the LCK is given as 0.3 in assay [1] (1 mg/kg) and 1 in assay [1] (4 mg/kg).

On to `Cc1nnn(C)c1-c1cnc2c3ccc([C@](C)(O)C4CC4)c(F)c3n([C@H](c3ccccc3)C3CCOCC3)c2c1` [Example 432, (1R)-1-cyclopropyl-1-[3-(dimethyl-1H-1,2,3-triazol-5-yl)-6-fluoro-5-[(S)-oxan-4-yl(phenyl)methyl]-5H-pyrido[3,2-b]indol-7-yl]ethan-1-ol], for which the IC50 at BRD4 is below 5 nM. Besides, the figures for the LCK in assay [1] (1 mg/kg) and in assay [1] (4 mg/kg) were 0.4 and 1.4, respectively.

Turning to `[2H]C([2H])([2H])c1nnn(C)c1-c1cnc2c3ccc([C@](C)(O)C4CC4)c(F)c3n([C@H](c3ccccc3)C3CCOCC3)c2c1` [Example 434, (1R)-1-cyclopropyl-1-{6-fluoro-3-[4-(^2H3)methyl-1-methyl-1H-1,2,3-triazol-5-yl]-5-[(S)-oxan-4-yl(phenyl)methyl]-5H-pyrido[3,2-b]indol-7-yl}ethan-1-ol], in assay [1] (1 mg/kg), the “% TGI” value is reported as 82% and the LCK is reported as 0.5.

As to `[2H]C([2H])([2H])c1nnn(C)c1-c1cnc2c3ccc([C@@](C)(O)C4CC4)c(F)c3n([C@H](c3ccccc3)C3CCOCC3)c2c1` [Example 433, (1S)-1-cyclopropyl-1-{6-fluoro-3-[4-(^2H3)methyl-1-methyl-1H-1,2,3-triazol-5-yl]-5-[(S)-oxan-4-yl(phenyl)methyl]-5H-pyrido[3,2-b]indol-7-yl}ethan-1-ol], in assay [1] (1 mg/kg), the “% TGI” value stood at 54% and the LCK was found to be 0.5.

Consider `Cc1nnn(C)c1-c1cnc2c3c(S(C)(=O)=O)cccc3n(C(c3ccccc3F)C3CCOCC3)c2c1` (single isomer, unassigned) [Example 116, 5-{5-[(2-Fluorophenyl)(oxan-4-yl)methyl]-9-methanesulfonyl-5H-pyrido[3,2-b]indol-3-yl}-1,4-dimethyl-1H-1,2,3-triazole], for which the IC50 at BRD4 was below 25 nM.

In the case of `Cc1nnn(C)c1-c1cnc2c3c(F)cc(C(C)(C)O)cc3n(C(c3cccc(F)c3F)C3CCOCC3)c2c1` (single isomer, unassigned) [Example 108, 2-{5-[(2,3-Difluorophenyl)(oxan-4-yl)methyl]-3-(dimethyl-1H-1,2,3-triazol-5-yl)-9-fluoro-5H-pyrido[3,2-b]indol-7-yl}propan-2-ol], at BRD4, the IC50 is below 5 nM.

Regarding `Cc1noc(C)c1-c1cnc2c3ccc(C(C)(C)O)cc3n(CC3CCC(F)(F)CC3)c2c1` [Example 49], the IC50 on BRD4 was below 5 nM.

As for `[2H]C([2H])([2H])c1nnn(C)c1-c1cnc2c3ccc(C(C)(C)O)c(F)c3n(C(c3ncccc3F)C3CCOCC3)c2c1` (single isomer, unassigned) [Example 458], the IC50 on BRD4 is below 5 nM.

On to `Cc1nnn(C)c1-c1cnc2c3ccc([C@@](C)(O)C4CC4)c(F)c3n([C@H](c3ccccc3)C3CCOCC3)c2c1` [Example 431, (1S)-1-Cyclopropyl-1-[3-(dimethyl-1H-1,2,3-triazol-5-yl)-6-fluoro-5-[(S)-oxan-4-yl(phenyl)methyl]-5H-pyrido[3,2-b]indol-7-yl]ethan-1-ol], for which, at BRD4, the IC50 is below 5 nM.

As to `Cc1nnn(C)c1-c1cnc2c3c(S(C)(=O)=O)cc(F)c(F)c3n([C@H](c3ccccc3)C3CCOCC3)c2c1` [Example 160, 5-{6,7-Difluoro-9-methanesulfonyl-5-[(S)-oxan-4-yl(phenyl)methyl]-5H-pyrido[3,2-b]indol-3-yl}-1,4-dimethyl-1H-1,2,3-triazole], at BRD4, the IC50 is below 5 nM.

On to `COc1cc(F)c(C(C2CCOCC2)n2c3cc(C(C)(C)O)ccc3c3ncc(-c4c(C)nnn4C)cc32)cc1F` (single isomer, unassigned) [Example 124, 2-{5-[(2,5-Difluoro-4-methoxyphenyl)(oxan-4-yl)methyl]-3-(dimethyl-1H-1,2,3-triazol-5-yl)-5H-pyrido[3,2-b]indol-7-yl}propan-2-ol], for which the IC50 on BRD4 is below 5 nM.

As to `Cc1nnn(C)c1-c1cnc2c3ccc(CS(C)(=O)=O)cc3n([C@H](c3ncccc3F)C3CCOCC3)c2c1` [Example 332], the IC50 at BRD4 is below 5 nM.

For `Cc1nnn(C)c1-c1cnc2c3ccc(S(C)(=O)=O)cc3n(C(c3ccccc3)C3CCC(F)(F)CC3)c2c1` (single isomer, unassigned) [Example 157, 5-{5-[(4,4-Difluorocyclohexyl)(phenyl)methyl]-7-methanesulfonyl-5H-pyrido[3,2-b]indol-3-yl}-1,4-dimethyl-1H-1,2,3-triazole], the IC50 at BRD4 is below 5 nM.

For `Cc1nnn(C)c1-c1cnc2c3ccc(C(C)(C)O)cc3n(C(c3ncccc3F)C3CCOCC3)c2c1` (single isomer, unassigned) [Example 294], at BRD4, the half-inhibitory concentration (IC50) was below 5 nM.

As to `Cc1noc(C)c1-c1cnc2c3ccc(C(O)CC#N)cc3n([C@H](c3ccccc3)C3CCOCC3)c2c1` (single isomer, unassigned) [Example 374], the IC50 on BRD4 is below 5 nM.

Regarding `[2H]C([2H])([2H])c1onc(C)c1-c1cnc2c3ccc(C(C)(C)O)cc3n([C@H](c3ccccc3)C3CCOCC3)c2c1` [Example 192, 2-{3-[5-(^2H3)Methyl-3-methyl-1,2-oxazol-4-yl]-5-[(S)-oxan-4-yl(phenyl)methyl]-5H-pyrido[3,2-b]indol-7-yl}propan-2-ol], the IC50 on BRD4 is below 5 nM.

Take `Cc1nnn(C)c1-c1cnc2c3c(S(C)(=O)=O)cccc3n([C@H](c3ccc(F)cc3)C3CCOCC3)c2c1` [Example 257, 5-{5-[(S)-(4-Fluorophenyl)(oxan-4-yl)methyl]-9-methanesulfonyl-5H-pyrido[3,2-b]indol-3-yl}-1,4-dimethyl-1H-1,2,3-triazole]: the IC50 at BRD4 is below 5 nM.

With `[2H]C([2H])([2H])c1nnn(C)c1-c1cnc2c3ccc(C(C)(O)C4CC4)c(F)c3n([C@H](c3ccccc3F)C3CCOCC3)c2c1` (single isomer, unassigned) [Example 438], the IC50 at BRD4 is below 5 nM.

As for `COc1ccc(C(C2CCOCC2)n2c3cc(C(C)(C)O)ccc3c3ncc(-c4c(C)nnn4C)cc32)c(F)c1` (single isomer, unassigned) [Example 120, 2-[3-(Dimethyl-1H-1,2,3-triazol-5-yl)-5-[(2-fluoro-4-methoxyphenyl)(oxan-4-yl)methyl]-5H-pyrido[3,2-b]indol-7-yl]propan-2-ol], the IC50 on BRD4 was below 5 nM.

As to `Cc1noc(C)c1-c1cnc2c3ccc(C(C)(C)O)cc3n([C@@H](c3ccc(F)cc3)C3CCOC(C)(C)C3)c2c1` (some centres unmarked) [Example 18], on BRD4, the half-maximal inhibitory concentration (IC50) is below 1500 nM.

For `Cc1noc(C)c1-c1cnc2c3ccc(C(C)(C)O)cc3n(C(c3cccc(F)c3)C3CCOCC3)c2c1` (single isomer, unassigned) [Example 148, 2-[3-(Dimethyl-1,2-oxazol-4-yl)-5-[(3-fluorophenyl)(oxan-4-yl)methyl]-5H-pyrido[3,2-b]indol-7-yl]propan-2-ol], the IC50 on BRD4 is below 25 nM.

As to `Cc1nnn(C)c1-c1cnc2c3cc(F)c(C(C)(O)C4CC4)cc3n([C@H](c3ccccc3F)C3CCOCC3)c2c1` (single isomer, unassigned) [Example 448], on BRD4, the IC50 was below 5 nM.

Take `[2H]C([2H])([2H])c1nnn(C)c1-c1cnc2c3ccc(C(C)(C)O)cc3n(C(c3ccc(F)cc3F)C3CCOCC3)c2c1` (centres unmarked) [Example 280, 2-{5-[(2,4-Difluorophenyl)(oxan-4-yl)methyl]-3-[4-(^2H3)methyl-1-methyl-1H-1,2,3-triazol-5-yl]-5H-pyrido[3,2-b]indol-7-yl}propan-2-ol]: the IC50 on BRD4 was below 5 nM.
